We go through two molecules from patent US20180028594A1, “[…] OPIOID RECEPTOR AGONISTS FOR HARD TISSUE PAIN” (Cara Therapeutics, Inc., priority 2014, published 2018).

In one data set the test system is tactile allodynia. The experiment in a line: L5/6 Spinal Nerve Ligation (Chung Model) of neuropathic pain. It is filed as in vivo, Rat. As for the experimental part: FIG. 1: Efficacy of CR845 in “Chung Model” of neuropathic pain is blocked with Peripheral (Intrapaw) administration of a kappa antagonist (norBNI) in rats. *** denotes p<0.001. compared to vehicle-treated controls (two-way ANOVA). Vehicle or Nor-BNI was administered intraplantarly (0.2 mg) 15 min prior to CR845. Injection (1 mg/kg). N=6 male rats/group, mean±SEM.
The peripheral mechanism of action of CR845 is supported preclinically by both biochemical in vitro assays and in vivo functional pharmacological studies. […] Moreover, in standard preclinical pain models, such as the “Chung Model” of neuropathic pain, the analgesic action of CR845 was blocked with kappa opioid receptor antagonists administered directly to the local site of injury, indicating a peripheral site of action for CR845 (FIG. 1). In the “Chung Model”, neuropathic pain is induced experimentally by ligating spinal nerves mediating sensation for a hind limb. […] Sets of different thickness filaments are used to test sensitivity, each of which is designed to produce a given force (in grams) upon bending after contact. By testing with these filaments, the minimum force to evoke a withdrawal response defines the paw withdrawal threshold. The nerve injury produces a marked reduction in paw withdrawal thresholds (increased sensitivity to force) in response to probing with the filaments.

Data set [1] relates to mechanical hyperalgesia. The experiment in a line: Carrageenan, acute inflammatory pain model. It is filed as in vivo. The conditions noted are these: Rat. The protocol: (§1) In standard preclinical pain models, CR845 successfully attenuated acute and chronic visceral, inflammatory and neuropathic pain in a dose-dependent manner (see Table 1, below). The analgesic effect of CR845 was recordable within 15 minutes post-administration and lasted for up to 18 hours following single-dose administration.

Data set [2] relates to Somatic and visceral pain. Kind of data set: Acetic Acid Writhing, somato-visceral inflammatory pain model. It is filed as in vivo. The conditions noted are these: Mouse. The protocol:
as §1
Background: In writhing tests, fewer writhes than in controls are read as antinociception.

Data set [3] deals with mechanical hyperalgesia. The experiment in a line: Complete Freund's Adjuvant, chronic inflammatory pain model. It is filed as in vivo. To be noted: Rat. As for the experimental part: as §1
Data set [4] in a line: Phase 1 clinical trials, safety and sedation (Ramsey Sedation Scale). It is filed as in vivo, human. The text has this: The most common TEAEs across evaluated populations were transient facial tingling or numbness, dizziness, fatigue and a transient increase in urine output in the absence of electrolyte loss, or aquaresis. […] No other changes in vital signs, including supine pulse rate, blood pressure, respiratory rate, oral body temperature, or oxygen saturation were reported, nor were any clinically significant changes observed in electrocardiogram characteristics. Additionally, the CNS adverse events characteristic of prior-generation CNS-active kappa agonists, such as acute psychiatric side effects, were not observed with CR845. The potential to cause sedation was assessed using the Ramsey Sedation Scale in the ascending dose-tolerance Phase 1 trial (Study 2048-001) of I.V. CR845, which included 54 subjects (17 on placebo; 37 on CR845).

Data set [5] concerns postoperative pain (hard tissue surgery). To be noted: human, in vivo.
Data set [6] has as its system acute and chronic visceral, inflammatory and neuropathic pain. The experiment in a line: Standard preclinical pain models, onset and duration of analgesic effect. It is filed as in vivo. The protocol:
as §1

Data set [7] has as its system postoperative pain (soft tissue surgery). The conditions noted are these: human, in vivo.
Data set [8] deals with pro-inflammatory mediators. The experiment in a line: Production and release of pro-inflammatory mediators.
Data set [9] in a line: Pharmacokinetic studies, drug in extracted brain tissue. It is filed as in vivo. To be noted: animals, analgesic and supra-analgesic doses.

In the case of `Oc1ccc2c3c1O[C@H]1c4[nH]c5c(c4C[C@@]4(O)[C@@H](C2)N(CC2CC2)CC[C@]314)C[C@@]1(O)[C@H]2Cc3ccc(O)c4c3[C@@]1(CCN2CC1CC1)[C@H]5O4` [nor-BNI, nor-binaltorphamine, reference compound], the “Effect of kappa antagonist on efficacy of CR845” value in the data set on tactile allodynia (rats, 0.2 mg intraplantar into injured paw 15 min prior to CR845 1 mg/kg) is given as “significantly reduces the effect of CR845”.
Consider `CC(C)C[C@@H](NC(=O)[C@@H](Cc1ccccc1)NC(=O)[C@H](N)Cc1ccccc1)C(=O)N[C@H](CCCCN)C(=O)N1CCC(N)(C(=O)O)CC1` [CR845, D-Phe-D-Phe-D-Leu-D-Lys-[ω(4-aminopiperidine-4-carboxylic acid)]—OH], for which the “Duration of Action” value in the data set with mechanical hyperalgesia [1] is >1 h. Further, the “ED50 (I.V., mg/kg)” value in the data set on mechanical hyperalgesia [1] (I.V., mechanical hyperalgesia) is given as 0.3 mg/kg. Moreover, the “Duration of Action” value in data set [2] was >18 h. Further, the “ED50 (I.V., mg/kg)” value in data set [2] (I.V.) was 0.07 mg/kg. In addition, the “Duration of Action” value with mechanical hyperalgesia [3] is >2 h. The “ED50 (I.V., mg/kg)” value in the data set on mechanical hyperalgesia [3] (I.V., mechanical hyperalgesia) stood at 0.08 mg/kg. Also, in [4] (ascending dose-tolerance Phase 1 trial (Study 2048-001), I.V., healthy subjects), the “Sedation, Ramsey Sedation Scale” value is reported as “did not cause sedation”. In addition, the Tolerability result in data set [4] (four Phase 1 clinical trials) is “generally well tolerated”. In addition, in data set [5], the “Acute psychiatric side effects” value is listed as “no evidence of acute psychiatric side effects”; the “Mean PID from baseline relative to placebo across 48 hour trial period” value is “numerically superior”; the “Most frequent TEAEs (greater than 10%)” value was “transient facial tingling and somnolence”; the “Reduction of incidence of nausea compared to placebo” value came out at 60%. In data set [5], the “Reduction of incidence of vomiting compared to placebo” value is on record as 80% and the “SPID scores 0-24, 0-36, 0-48 compared to placebo” value is recorded as “Numerical improvements”. In [5] (iv, 0.005 mg/kg), the “Rise of mean plasma sodium concentration from baseline” value is reported as “approximately 3%”, the “SPID0-24 compared to placebo” value is on record as “statistically significant reduction in pain intensity”, the “SPID0-36 compared to placebo” value is recorded as “statistically significant” and the “SPID0-48 compared to placebo” value is “statistically significant”. The “ED50 (I.V., mg/kg)” value in the data set with tactile allodynia (Rat, I.V., L5/6 Spinal Nerve Ligation, tactile allodynia) is on record as 0.3 mg/kg. In addition, the “Duration of Action” value in the data set on tactile allodynia (Rat, L5/6 Spinal Nerve Ligation) is >8 h. The Paw withdrawal threshold result in the data set on tactile allodynia (rats, I.V. CR845 1 mg/kg, Chung Model) was “increase in the withdrawal threshold”. For the same molecule, the “Time at which analgesic effect was recordable post-administration” value in data set [6] was ≤ 15 min. The “Duration of analgesic effect following single-dose administration” value in [6] (single dose) is given as “up to 18 hours”. Besides, in data set [7], the “Greater reduction in pain intensity (PID) at 24 hours compared to Placebo/Placebo” value was “approximately 60%”; the “Improvement in mean SPID values 0-4 hour compared to Placebo/Placebo” value is 3.5 fold; the “Incidence of nausea, patients” value is on record as 26.1%; the “Incidence of vomiting, patients” value is 1.7%. Besides, in [7], the “Mean TOTPAR0-2, pain relief within first 2 hours compared to Placebo/Placebo” value is given as “statistically superior pain relief”; the “Percentage of patients characterized as Responders (global evaluation of study medication) compared to placebo” value is “higher percentage”; the “Pruritus reported compared to placebo” value is on record as “less pruritus”; the “Reduction of incidence of nausea versus placebo” value is on record as “approximately 50%”. In [7], the “Reduction of incidence of vomiting versus placebo” value is given as ~80%; the “SPID over 0-8, 0-12 and 0-16 time periods compared to Placebo/Placebo” value is on record as “reduced pain intensity”. The “Blood sodium increase (hypernatremia), of total patients” value in [7] (iv, 0.04 mg/kg) was 14%. For the same molecule, the “Production and release of pro-inflammatory mediators” value in data set [8] was “decreased the production and release of pro-inflammatory mediators”. Moreover, the “Concentration of drug in extracted brain tissue” value in data set [9] is on record as “no measurable concentrations”.
